According to PubChem BioAssay AID179 (DTP/NCI, 2004):
“And” between values parts separate entries of the source, which are not always exact repeats. Equal entries are not always repeated. The source made the active and inactive calls.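 Rule for the calls: active = compounds giving half or more protection of infected cells from virus-caused growth loss, again on retest; inactive = the rest.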

System: CEM cells HIV-1 protection, formazan growth assay
Experiment: NCI AIDS Antiviral Assay
Conditions: for IC50: measured here: growth of uninfected CEM cells
In short: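 Five concentrations of each compound were applied to infected and uninfected human CEM cells. Protection from HIV-1 was judged from growth measured with a soluble formazan assay.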

CC(=O)Nc1ccc(Nc2cc(=O)[nH]c(=O)[nH]2)cc1
EC50: > 200 µM | IC50: > 200 µM

COC(=O)C1=C(O)c2cc(C)c(C)c(C#N)c2NC(=O)C1
EC50: > 200 µM | IC50: > 200 µM

CCOC(=O)C(CCCCS(=O)(=O)O)C(=O)OCC
EC50: > 200 µM | IC50: > 200 µM

Cc1ccc(S(=O)(=O)C2=c3nc4ccccc4cc3=C3C(=O)c4ccccc4C(=O)C32)cc1 (centres undefined)
EC50: > 21.9 µM | IC50: > 21.9 µM

CCCCCCCCCCCCCCCCCC(=O)OCC(COC(=O)CCCN)OC(=O)CCCN (centres undefined)
outcome: inactive

CC(C)c1ccc(C(c2c(O)c3ccccc3oc2=O)c2c(O)c3ccccc3oc2=O)cc1
EC50: > 200 µM | IC50: 30.2 µM

O=C(c1ccccc1)c1nnn(Cc2ccccc2Cn2nnc(C(=O)c3ccccc3)c2C(=O)c2ccccc2)c1C(=O)c1ccccc1
EC50: > 7.94 µM | IC50: > 7.94 µM

CC(=O)OC1CC2C(CCC3(C)C(OC(C)=O)CCC23)c2c(OS(=O)(=O)c3ccccc3)ccc(C)c21 (centres undefined)
EC50: > 100 µM | IC50: > 100 µM

O=C(CC1C(=O)c2ccccc2C1=C1C(=O)c2ccccc2C1=O)c1ccccc1 (centres undefined)
EC50: > 9.55 µM | IC50: 5.5 µM

C/C(=N\NC(=O)c1ccncc1)c1sc(-n2nc(-c3ccccc3)cc2-c2ccccc2)nc1C
EC50: > 11 µM | IC50: > 11 µM

CC(=O)OC1CCC2C3CCC4(C)C(=O)CCC4C3C3OC23C1 (centres undefined)
EC50: > 282 µM | IC50: 209 µM

COc1cc(C=C2N=C(c3ccccc3)N(n3c(-c4ccccc4)nc4ccccc4c3=O)C2=O)cc(OC)c1OC
EC50: > 200 µM | IC50: 30.9 µM

C=C1C(=O)SC(=NCc2ccccc2)N1C
EC50: > 204 µM | IC50: 132 µM

Cc1c2ccccc2c(CSCCC(N)C(=O)O)c2ccccc12 (centres undefined)
EC50: > 200 µM | IC50: > 200 µM

O=C1/C(=C/c2cccc([N+](=O)[O-])c2)Cc2ccccc21
EC50: > 200 µM | IC50: > 200 µM

Cc1ccc(-n2c(Cn3nnc(-c4cccnc4)n3)nn(C3OC(COC(=O)c4ccccc4)C(OC(=O)c4ccccc4)C3OC(=O)c3ccccc3)c2=S)cc1C (centres undefined)
EC50: > 100 µM | IC50: > 100 µM

CC(=O)NC(C)(C)C1CCC(C)CC1 (centres undefined)
EC50: > 200 µM | IC50: > 200 µM

N/N=C1\CC(c2ccccc2)Oc2ccccc21 (centres undefined)
EC50: > 200 µM | IC50: 182 µM

CC1(C)Oc2ccc3ccccc3c2[C@@H](OC(=O)C23CCC(C)(C(=O)O2)C3(C)C)[C@H]1OC(=O)C12CCC(C)(C(=O)O1)C2(C)C (some centres undefined)
EC50: > 200 µM | IC50: 3.55 µM

O=C1c2cc([N+](=O)[O-])ccc2NC1(c1c[nH]c2ccccc12)c1c[nH]c2ccc(Br)cc12 (centres undefined)
EC50: > 200 µM | IC50: 26.3 µM

CN1C(=S)CSc2ccccc21
EC50: > 182 µM | IC50: > 182 µM

Clc1ccc(C(c2ccccc2Cl)C(Cl)Cl)cc1 (centres undefined)
EC50: > 200 µM | IC50: 61.7 µM

O=C1c2cccn2-c2ccccc2OC1c1ccc(NC(=S)Nc2ccc(Cl)cn2)cc1 (centres undefined)
EC50: > 200 µM | IC50: 15.8 µM

CC(=O)NCCC1CN(C(=O)/C=C/I)c2ccccc21 (centres undefined)
EC50: > 200 µM | IC50: 1.1 µM

O=C1C=C(Nc2ccccc2C(=O)CC(=O)C(=O)Nc2cccc(C(F)(F)F)c2)c2ccccc2C1=O
EC50: > 37.2 µM | IC50: 6.61 µM

c1csc(-c2cc(-c3cccs3)c(-c3cccs3)s2)c1
EC50: > 200 µM | IC50: 38.9 µM

COc1ccc(C(=O)C(C(=O)C(=O)Nc2ccc(Cl)c(Cl)c2)c2ccc(OC)cc2)cc1 (centres undefined)
EC50: > 75.9 µM | IC50: > 75.9 µM

CN1C(=O)CC2CCC(=O)N2c2cccnc21 (centres undefined)
EC50: > 200 µM | IC50: > 200 µM

C(=Nc1ccccc1)c1ccc(C=Nc2ccccc2)cc1
EC50: > 3.63 µM | IC50: > 3.63 µM

COc1cccc(/C=C2\SC(=S)N(/C=C3\C(=O)Oc4ccccc4C3=O)C2=O)c1O
EC50: > 200 µM | IC50: 70.8 µM

CCCC[C@@H]1CCN2C[C@@H](O)[C@@H](O)[C@H]2[C@@H]1O
EC50: > 200 µM | IC50: > 200 µM

Clc1ccc(C[P+](c2ccccc2)(c2ccccc2)c2ccccc2)c(Cl)c1
EC50: > 200 µM | IC50: 1.48 µM

OC1CCCC2CCC[N-]C12.OC1CCCC2CCC[N-]C12.[Mn+2] (centres undefined)
outcome: inactive

O=c1cnc2c(ccc3ccccc32)[nH]1
EC50: > 182 µM | IC50: > 182 µM

N#CCCC(C#N)(CCC#N)c1ccccc1
EC50: > 813 µM | IC50: > 813 µM

COc1ccc(/C(C)=N/NC(N)=S)c(OC)c1
outcome: inactive

O=[N+]([O-])c1nccn1CC1OC(n2ccnc2[N+](=O)[O-])C(O)C(O)C1O (centres undefined)
EC50: > 200 µM | IC50: > 200 µM

O=C(Cc1ccccc1)NN1C(=O)C(Cl)C1c1ccc(Cl)cc1 (centres undefined)
EC50: > 102 µM | IC50: > 102 µM

C[N+](C)(C)CC1CCc2ccccc2C1=O (centres undefined)
EC50: > 724 µM | IC50: 1.32 µM

Cc1ccccc1NC(=O)CC1C(=O)Nc2ccccc2S1=O (centres undefined)
EC50: > 21.9 µM | IC50: > 21.9 µM

COc1ccc2c(c1)OC(OC)(c1ccc(OC)c(OC)c1)C(O)(OC)C2=O (centres undefined)
EC50: > 200 µM | IC50: 11.2 µM

CN(C)CCC(/C=C/c1ccccc1)=N\Nc1ccc(Cl)cc1
EC50: > 100 µM | IC50: 10.7 µM

CC(C)(NC(=O)c1ccccc1SC(=O)CCCC[n+]1ccccc1)C(N)=O
EC50: 1 µM | IC50: 50.1 µM

Cn1c(=O)n2n(c1=O)C1CCC2CC1
EC50: > 1290 µM | IC50: 437 µM

NC1=NC(Cn2nc(-c3ccccc3)c3ccccc3c2=O)=NNC(=O)N1
EC50: > 20 µM | IC50: > 20 µM

COc1cc(-c2cc(=O)c3cc(C)c(C)c(C(=O)O)c3o2)cc(OC)c1OC
outcome: inactive

CC1Cn2c(=O)[nH]c3cccc(c32)NC1=O (centres undefined)
EC50: > 200 µM | IC50: 44.7 µM

O=C(O)N1CCc2c(sc3ccccc23)C1
EC50: > 95.5 µM | IC50: > 95.5 µM

O=C(CN1CCCC1)Nc1ccc2c(c1)C1Oc3ccccc3CC1CO2 (centres undefined)
outcome: inactive

Cc1c2c(cc3c1OCN(Cc1ccccc1)C3)CN(Cc1ccccc1)CO2
EC50: > 200 µM | IC50: 30.9 µM

CCCC[Si](CCCC)(CCCC)O[C@@H](/C=C/C(=O)OCC)[C@H](Cc1ccccc1)O[Si](CCCC)(CCCC)CCCC
EC50: > 200 µM | IC50: > 200 µM

Cc1cn(C2CC(N(O)Cc3ccccc3)C(CO[Si](C)(C)C(C)(C)C)O2)c(=O)[nH]c1=O (centres undefined)
EC50: > 200 µM | IC50: 12 µM and 36.3 µM

CCOP(=O)(OCC)Oc1ccc(Sc2ccc(OP(=O)(OCC)OCC)cc2)cc1
EC50: > 200 µM | IC50: 85.1 µM

Cc1nc(N)nc(N)c1N1CCN(c2ccc(C(=O)NC(CCC(=O)O)C(=O)O)cc2)CC1 (centres undefined)
EC50: > 200 µM | IC50: 0.0631 µM

O=C1C(C2CCCCC2)CCCC1(CO)CO (centres undefined)
outcome: inactive

O=C1C(=Nc2ccccc2)Oc2cc(O)ccc21
EC50: > 200 µM | IC50: 17.8 µM

COc1ccc2c(c1OC)OCC(CN(C)C)C2=O (centres undefined)
outcome: inactive

CCCC/C=C/C1Cc2ccccc2CN1S(=O)(=O)c1ccc(C)cc1 (centres undefined)
EC50: > 25.1 µM | IC50: 5.25 µM

O=C(N[C@H]1c2ccsc2/C(=N/O)[C@H]1O)C(F)(F)F
EC50: > 200 µM | IC50: > 200 µM

OC(CBr)C(O)C(O)C(O)CBr (centres undefined)
outcome: inactive

CC1=C(C(=O)CC(=O)C(=O)Nc2ccc(C)c(C)c2)Sc2ccccc2N1
EC50: > 6.92 µM | IC50: > 6.92 µM

CN(C)c1ccc(/C=N/Nc2nc3ccccc3c(=O)n2-c2ccccc2)cc1
EC50: > 100 µM | IC50: > 100 µM

O=C(O)c1ccccc1/C=C1/Cc2ccc3c(c2C1=O)CCC3
outcome: inactive

CCOC(=O)C1CSC(=N)N1C(C)=O (centres undefined)
EC50: 115 µM | IC50: 123 µM
